Results published in PMC7365685 (ACS chemical biology, 2019).
Residue numbers refer to the chain shown, from its start.

Experiments:
[1] = molecular target: T1, dopamine D2 receptor (D2R; D2SR; SNAP-D2SR) (Homo sapiens, UniProt P14416); assay: [3H]spiperone competition binding
[2] = molecular target: T1, dopamine D2 receptor (D2R; D2SR; SNAP-D2SR); assay: inhibition of forskolin-stimulated cAMP; assay type: cell-based; conditions: functional affinity; receptor alkylation with phenoxybenzamine
N186^ECL2A D2R = N186^ECL2A D2R (Homo sapiens, UniProt P14416, N186A); assay: biochemical; design: species or system FlpIn CHO
L174^ECL2A D2R = L174^ECL2A D2R (Homo sapiens, UniProt P14416, L174A); assay: biochemical; design: species or system FlpIn CHO
I122^3.40A D2R = molecular target: T2, I122^3.40A D2R (Homo sapiens, UniProt P14416, I122A); assay: biochemical; design: species or system FlpIn CHO
T2 sequence (P14416 1-443 I122A): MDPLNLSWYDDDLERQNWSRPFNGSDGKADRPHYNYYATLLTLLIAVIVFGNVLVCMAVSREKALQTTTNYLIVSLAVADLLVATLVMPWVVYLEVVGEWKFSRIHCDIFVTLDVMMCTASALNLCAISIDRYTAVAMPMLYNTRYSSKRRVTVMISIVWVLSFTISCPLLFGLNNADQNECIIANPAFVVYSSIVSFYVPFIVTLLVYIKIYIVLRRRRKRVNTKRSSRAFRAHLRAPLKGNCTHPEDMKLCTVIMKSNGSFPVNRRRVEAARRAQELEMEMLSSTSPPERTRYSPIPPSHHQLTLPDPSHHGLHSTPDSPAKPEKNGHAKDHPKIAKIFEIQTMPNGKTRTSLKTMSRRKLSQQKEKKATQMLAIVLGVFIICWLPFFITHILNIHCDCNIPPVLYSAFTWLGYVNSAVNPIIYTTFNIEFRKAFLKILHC

[3] = molecular target: dopamine D2 receptor (D2R; D2SR; SNAP-D2SR) (Homo sapiens, UniProt P14416, F110A); assay: biochemical
[4] = molecular target: dopamine D2 receptor (D2R; D2SR; SNAP-D2SR) (Homo sapiens, UniProt P14416, S193A); assay: biochemical
V115^3.33A D2R = molecular target: T3, V115^3.33A D2R (Homo sapiens, UniProt P14416, V115A); assay: biochemical
T3 sequence (P14416 1-443 V115A): T2 sequence (P14416 1-443 I122A) with V115A, A122I

C118^3.36A D2R = molecular target: T4, C118^3.36A D2R (Homo sapiens, UniProt P14416, C118A); assay: biochemical
T4 sequence (P14416 1-443 C118A): T2 sequence (P14416 1-443 I122A) with C118A, A122I

E181^ECL2A D2R = E181^ECL2A D2R (Homo sapiens, UniProt P14416, E181A); assay: biochemical
[5] = molecular target: dopamine D2 receptor (D2R; D2SR; SNAP-D2SR) (Homo sapiens, UniProt P14416, F202A); assay: biochemical
S197^5.46A D2R = S197^5.46A D2R (Homo sapiens, UniProt P14416, S197A); assay: biochemical
I183^ECL2A D2R = I183^ECL2A D2R (Homo sapiens, UniProt P14416, I183A); assay: biochemical
T119^3.37A D2R = molecular target: T5, T119^3.37A D2R (Homo sapiens, UniProt P14416, T119A); assay: biochemical
T5 sequence (P14416 1-443 T119A): T2 sequence (P14416 1-443 I122A) with T119A, A122I

[6] = molecular target: T1, dopamine D2 receptor (D2R; D2SR; SNAP-D2SR); assay: inhibition of forskolin-stimulated cAMP; assay type: cell-based; conditions: functional affinity (dissociation constant of coupled receptor); partial agonist

T1 sequence (P14416 1-414 isoform P14416-2): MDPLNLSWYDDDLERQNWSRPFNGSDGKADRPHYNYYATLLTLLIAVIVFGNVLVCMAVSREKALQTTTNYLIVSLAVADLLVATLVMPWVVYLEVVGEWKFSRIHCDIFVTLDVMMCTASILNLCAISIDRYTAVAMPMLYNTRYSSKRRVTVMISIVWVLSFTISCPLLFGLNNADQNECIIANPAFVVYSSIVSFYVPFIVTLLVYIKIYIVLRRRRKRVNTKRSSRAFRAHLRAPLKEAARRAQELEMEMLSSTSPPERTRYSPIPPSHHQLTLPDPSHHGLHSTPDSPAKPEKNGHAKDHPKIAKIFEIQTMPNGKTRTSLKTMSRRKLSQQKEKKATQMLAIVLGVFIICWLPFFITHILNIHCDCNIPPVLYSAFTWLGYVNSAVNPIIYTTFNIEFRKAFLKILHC
Chain of dopamine D2 receptor (D2R; D2SR; SNAP-D2SR) (Homo sapiens, UniProt P14416, F202A) (P14416 1-414 isoform P14416-2 F202A): as the sequence (P14416 1-414 isoform P14416-2) above, with F202A counted along it
Chain of N186^ECL2A D2R (P14416 whole entry N186A): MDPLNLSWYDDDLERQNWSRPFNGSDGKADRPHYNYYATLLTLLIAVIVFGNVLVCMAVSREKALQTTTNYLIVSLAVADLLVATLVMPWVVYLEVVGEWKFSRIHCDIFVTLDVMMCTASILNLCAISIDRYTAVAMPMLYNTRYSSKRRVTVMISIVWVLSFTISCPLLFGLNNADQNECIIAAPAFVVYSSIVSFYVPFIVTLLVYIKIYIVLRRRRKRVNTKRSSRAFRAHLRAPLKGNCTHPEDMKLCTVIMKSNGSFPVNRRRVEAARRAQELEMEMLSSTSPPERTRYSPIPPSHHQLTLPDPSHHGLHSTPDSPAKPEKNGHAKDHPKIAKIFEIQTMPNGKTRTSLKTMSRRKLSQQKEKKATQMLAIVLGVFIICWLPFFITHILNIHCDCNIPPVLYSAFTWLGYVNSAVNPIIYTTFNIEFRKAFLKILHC
Chain of E181^ECL2A D2R (P14416 whole entry E181A): as the sequence (P14416 whole entry N186A) above, with E181A, A186N counted along it
Chain of dopamine D2 receptor (D2R; D2SR; SNAP-D2SR) (Homo sapiens, UniProt P14416, S193A) (P14416 1-414 isoform P14416-2 S193A): as the sequence (P14416 1-414 isoform P14416-2) above, with S193A counted along it
Chain of L174^ECL2A D2R (P14416 whole entry L174A): as the sequence (P14416 whole entry N186A) above, with L174A, A186N counted along it
Chain of I183^ECL2A D2R (P14416 whole entry I183A): as the sequence (P14416 whole entry N186A) above, with I183A, A186N counted along it
Chain of S197^5.46A D2R (P14416 whole entry S197A): as the sequence (P14416 whole entry N186A) above, with A186N, S197A counted along it
Chain of dopamine D2 receptor (D2R; D2SR; SNAP-D2SR) (Homo sapiens, UniProt P14416, F110A) (P14416 1-414 isoform P14416-2 F110A): as the sequence (P14416 1-414 isoform P14416-2) above, with F110A counted along it

COCCCCN1CCN(c2cccc(Cl)c2Cl)CC1 [compound 4]
Ki [1]: 0.02 µM

CCCN(CCC)CCc1cccc2c1CC(=O)N2 [ropinirole]
pKA [2]: determine the functional affinity and efficacy of dopamine and ropinirole | Ki [1]: 6.61 µM | Ki (N186^ECL2A D2R): 9.77 µM | Ki (L174^ECL2A D2R): 2.24 µM | Ki (I122^3.40A D2R): 7.76 µM | Ki [3]: 42.7 µM | Ki [4]: 100 µM | Ki (V115^3.33A D2R): 18.6 µM | Ki (C118^3.36A D2R): 3.72 µM | Ki (E181^ECL2A D2R): 3.02 µM | Ki [5]: 12.3 µM | Ki (S197^5.46A D2R): 8.51 µM | Ki (I183^ECL2A D2R): 3.16 µM | Ki (T119^3.37A D2R): 4.27 µM

Clc1cccc(N2CCNCC2)c1Cl [compound 1, DCPP]
cAMP (BRET Biosensor) / pKA [6]: 6.49 ± 0.18 | Ki [1]: 0.575 µM

CCCCN1CCN(c2ccccc2OC)CC1 [compound 12]
Ki [1]: 0.0933 µM

CCCCN1CCN(c2cccc(Cl)c2Cl)CC1 [compound 3]
Ki [1]: 0.00501 µM

NCCc1ccc(O)c(O)c1 [dopamine]
pKA [2]: determine the functional affinity and efficacy of dopamine and ropinirole

CCCN1CCN(c2cccc(Cl)c2Cl)CC1 [compound 2]
Ki [1]: 0.0182 µM
